Results as given in patent US12215140B2, “Method of stabilizing protein contained in specimen and solution for stabilizing protein contained in specimen” (EIKEN KAGAKU KABUSHIKI KAISHA, priority 2018, dated 2025).

Molecular target: hemoglobin (Homo sapiens, UniProt P68871+P69905)
Test: Stability of hemoglobin in samples preserved at 37° C. in preservation solution containing no haptoglobin, Hb measured by latex agglutination method (Examples 8, 9 and Table 10)
Procedure: Preservation solutions were prepared with the addition of 40 mmol/L HEPES (pH 6.8), 0.1% BSA, 0.1% NaN3, and 0 to 2.5 mmol/L phenylboronic acid. […] Samples obtained by adding hemoglobin-added fecal specimens to the preservation solutions so that the fecal concentration would be 0.5% were preserved at 37° C. for 0, 16, 38, and 62 hours. The fecal specimens were added with hemoglobin having an amount such that the hemoglobin concentration in the samples would be about 300 μg/L. Instead of the fecal specimens to which hemoglobin was added, samples containing no fecal specimens, in which hemoglobin was added to the preservation solutions so that the hemoglobin concentration in the samples would be 300 μg/L, were similarly preserved. The hemoglobin (Hb) concentrations (μg/L) in the preserved samples were measured by the latex agglutination method using the same measurement reagent and measurement device as in Example 1.
The concentration of phenylboronic acid in the preservation solutions of Example 8 was fixed to 0.5 mmol/L, preservation solutions to which sorbitol or sucrose was further added at 10 to 250 mmol/L or trehalose, glucose, fructose, or mannitol was further added at 50 to 100 mmol/L were prepared, and testing was conducted in the same manner as in Example 8. In addition, preservation solutions to which the phenylboronic acid was added but no sugar was added were prepared, preservation solutions to which the phenylboronic acid and sugar were not added were prepared for the comparative examples, and testing was conducted in the same manner.
For comparative examples, preservation solutions to which no arylboronic acid was added were prepared, and testing was conducted in the same manner.

[1] = Feces 1, 0 h at 37° C., arylboronic acid 0.5 mmol/L, no sugar
[2] = Feces 1, 16 h at 37° C., arylboronic acid 0.5 mmol/L, no sugar
[3] = Feces 1, 38 h at 37° C., arylboronic acid 0.5 mmol/L, no sugar
[4] = Feces 1, 62 h at 37° C., arylboronic acid 0.5 mmol/L, no sugar
[5] = Feces 1, arylboronic acid 0.5 mmol/L, 0 h at 37° C.
[6] = Feces 1, arylboronic acid 0.5 mmol/L, 16 h at 37° C.
[7] = Feces 1, arylboronic acid 0.5 mmol/L, 38 h at 37° C.
[8] = Feces 1, arylboronic acid 0.5 mmol/L, 62 h at 37° C.
[9] = Feces 1, arylboronic acid 1 mmol/L, 0 h at 37° C.
[10] = Feces 1, arylboronic acid 1 mmol/L, 16 h at 37° C.
[11] = Feces 1, arylboronic acid 1 mmol/L, 38 h at 37° C.
[12] = Feces 1, arylboronic acid 1 mmol/L, 62 h at 37° C.
[13] = Feces 2, 0 h at 37° C., arylboronic acid 0.5 mmol/L, no sugar
[14] = Feces 2, 16 h at 37° C., arylboronic acid 0.5 mmol/L, no sugar
[15] = Feces 2, 38 h at 37° C., arylboronic acid 0.5 mmol/L, no sugar
[16] = Feces 2, 62 h at 37° C., arylboronic acid 0.5 mmol/L, no sugar
[17] = Feces 2, arylboronic acid 0.5 mmol/L, 0 h at 37° C.
[18] = Feces 2, arylboronic acid 0.5 mmol/L, 16 h at 37° C.
[19] = Feces 2, arylboronic acid 0.5 mmol/L, 38 h at 37° C.
[20] = Feces 2, arylboronic acid 0.5 mmol/L, 62 h at 37° C.
[21] = Feces 2, arylboronic acid 1 mmol/L, 0 h at 37° C.
[22] = Feces 2, arylboronic acid 1 mmol/L, 16 h at 37° C.
[23] = Feces 2, arylboronic acid 1 mmol/L, 38 h at 37° C.
[24] = Feces 2, arylboronic acid 1 mmol/L, 62 h at 37° C.
[25] = Feces 3, 0 h at 37° C., arylboronic acid 0.5 mmol/L, no sugar
[26] = Feces 3, 16 h at 37° C., arylboronic acid 0.5 mmol/L, no sugar
[27] = Feces 3, 38 h at 37° C., arylboronic acid 0.5 mmol/L, no sugar
[28] = Feces 3, 62 h at 37° C., arylboronic acid 0.5 mmol/L, no sugar
[29] = Feces 3, arylboronic acid 0.5 mmol/L, 0 h at 37° C.
[30] = Feces 3, arylboronic acid 0.5 mmol/L, 16 h at 37° C.
[31] = Feces 3, arylboronic acid 0.5 mmol/L, 38 h at 37° C.
[32] = Feces 3, arylboronic acid 0.5 mmol/L, 62 h at 37° C.
[33] = Feces 3, arylboronic acid 1 mmol/L, 0 h at 37° C.
[34] = Feces 3, arylboronic acid 1 mmol/L, 16 h at 37° C.
[35] = Feces 3, arylboronic acid 1 mmol/L, 38 h at 37° C.
[36] = Feces 3, arylboronic acid 1 mmol/L, 62 h at 37° C.
[37] = No feces, 0 h at 37° C., arylboronic acid 0.5 mmol/L, no sugar
[38] = No feces, 16 h at 37° C., arylboronic acid 0.5 mmol/L, no sugar
[39] = No feces, 38 h at 37° C., arylboronic acid 0.5 mmol/L, no sugar
[40] = No feces, 62 h at 37° C., arylboronic acid 0.5 mmol/L, no sugar
[41] = No feces, arylboronic acid 0.5 mmol/L, 0 h at 37° C.
[42] = No feces, arylboronic acid 0.5 mmol/L, 16 h at 37° C.
[43] = No feces, arylboronic acid 0.5 mmol/L, 38 h at 37° C.
[44] = No feces, arylboronic acid 0.5 mmol/L, 62 h at 37° C.
[45] = No feces, arylboronic acid 1 mmol/L, 0 h at 37° C.
[46] = No feces, arylboronic acid 1 mmol/L, 16 h at 37° C.
[47] = No feces, arylboronic acid 1 mmol/L, 38 h at 37° C.
[48] = No feces, arylboronic acid 1 mmol/L, 62 h at 37° C.

Chain of hemoglobin (P69905 2-142): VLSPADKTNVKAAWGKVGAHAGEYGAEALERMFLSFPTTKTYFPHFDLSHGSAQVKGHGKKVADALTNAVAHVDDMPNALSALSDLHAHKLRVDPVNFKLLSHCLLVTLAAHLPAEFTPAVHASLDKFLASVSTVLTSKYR
Chain of hemoglobin (P68871 2-147): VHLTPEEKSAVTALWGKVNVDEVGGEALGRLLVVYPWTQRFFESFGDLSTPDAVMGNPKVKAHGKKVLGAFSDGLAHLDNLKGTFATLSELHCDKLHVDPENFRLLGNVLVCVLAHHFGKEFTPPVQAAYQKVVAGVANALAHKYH

OB(O)c1ccccc1 [PBA]
Hb concentration [1]: 300 µg/L
Recovery ratio with respect to Hb after 0 days [1]: 100%
Hb concentration [2]: 174 µg/L
Recovery ratio with respect to Hb after 0 days [2]: 58%
Hb concentration [3]: 74 µg/L
Recovery ratio with respect to Hb after 0 days [3]: 25%
Hb concentration [4]: 17 µg/L
Recovery ratio with respect to Hb after 0 days [4]: 6%
Hb concentration [5]: 300 µg/L
Recovery ratio with respect to Hb after 0 days [5]: 100%
Hb concentration [6]: 174 µg/L
Recovery ratio with respect to Hb after 0 days [6]: 58%
Hb concentration [7]: 74 µg/L
Recovery ratio with respect to Hb after 0 days [7]: 25%
Hb concentration [8]: 17 µg/L
Recovery ratio with respect to Hb after 0 days [8]: 6%
Hb concentration [9]: 298 µg/L
Recovery ratio with respect to Hb after 0 days [9]: 100%
Hb concentration [10]: 182 µg/L
Recovery ratio with respect to Hb after 0 days [10]: 61%
Hb concentration [11]: 92 µg/L
Recovery ratio with respect to Hb after 0 days [11]: 31%
Hb concentration [12]: 30 µg/L
Recovery ratio with respect to Hb after 0 days [12]: 10%
Hb concentration [13]: 299 µg/L
Recovery ratio with respect to Hb after 0 days [13]: 100%
Hb concentration [14]: 103 µg/L
Recovery ratio with respect to Hb after 0 days [14]: 34%
Hb concentration [15]: 10 µg/L
Recovery ratio with respect to Hb after 0 days [15]: 3%
Hb concentration [16]: 0 µg/L
Recovery ratio with respect to Hb after 0 days [16]: 0%
Hb concentration [17]: 299 µg/L
Recovery ratio with respect to Hb after 0 days [17]: 100%
Hb concentration [18]: 103 µg/L
Recovery ratio with respect to Hb after 0 days [18]: 34%
Hb concentration [19]: 10 µg/L
Recovery ratio with respect to Hb after 0 days [19]: 3%
Hb concentration [20]: 0 µg/L
Recovery ratio with respect to Hb after 0 days [20]: 0%
Hb concentration [21]: 299 µg/L
Recovery ratio with respect to Hb after 0 days [21]: 100%
Hb concentration [22]: 119 µg/L
Recovery ratio with respect to Hb after 0 days [22]: 40%
Hb concentration [23]: 17 µg/L
Recovery ratio with respect to Hb after 0 days [23]: 6%
Hb concentration [24]: 0 µg/L
Recovery ratio with respect to Hb after 0 days [24]: 0%
Hb concentration [25]: 289 µg/L
Recovery ratio with respect to Hb after 0 days [25]: 100%
Hb concentration [26]: 92 µg/L
Recovery ratio with respect to Hb after 0 days [26]: 32%
Hb concentration [27]: 8 µg/L
Recovery ratio with respect to Hb after 0 days [27]: 3%
Hb concentration [28]: 0 µg/L
Recovery ratio with respect to Hb after 0 days [28]: 0%
Hb concentration [29]: 289 µg/L
Recovery ratio with respect to Hb after 0 days [29]: 100%
Hb concentration [30]: 92 µg/L
Recovery ratio with respect to Hb after 0 days [30]: 32%
Hb concentration [31]: 8 µg/L
Recovery ratio with respect to Hb after 0 days [31]: 3%
Hb concentration [32]: 0 µg/L
Recovery ratio with respect to Hb after 0 days [32]: 0%
Hb concentration [33]: 287 µg/L
Recovery ratio with respect to Hb after 0 days [33]: 100%
Hb concentration [34]: 112 µg/L
Recovery ratio with respect to Hb after 0 days [34]: 39%
Hb concentration [35]: 14 µg/L
Recovery ratio with respect to Hb after 0 days [35]: 5%
Hb concentration [36]: 0 µg/L
Recovery ratio with respect to Hb after 0 days [36]: 0%
Hb concentration [37]: 295 µg/L
Recovery ratio with respect to Hb after 0 days [37]: 100%
Hb concentration [38]: 284 µg/L
Recovery ratio with respect to Hb after 0 days [38]: 96%
Hb concentration [39]: 270 µg/L
Recovery ratio with respect to Hb after 0 days [39]: 91%
Hb concentration [40]: 263 µg/L
Recovery ratio with respect to Hb after 0 days [40]: 89%
Hb concentration [41]: 295 µg/L
Recovery ratio with respect to Hb after 0 days [41]: 100%
Hb concentration [42]: 284 µg/L
Recovery ratio with respect to Hb after 0 days [42]: 96%
Hb concentration [43]: 270 µg/L
Recovery ratio with respect to Hb after 0 days [43]: 91%
Hb concentration [44]: 263 µg/L
Recovery ratio with respect to Hb after 0 days [44]: 89%
Hb concentration [45]: 292 µg/L
Recovery ratio with respect to Hb after 0 days [45]: 100%
Hb concentration [46]: 276 µg/L
Recovery ratio with respect to Hb after 0 days [46]: 95%
Hb concentration [47]: 261 µg/L
Recovery ratio with respect to Hb after 0 days [47]: 90%
Hb concentration [48]: 259 µg/L
Recovery ratio with respect to Hb after 0 days [48]: 89%
